Data: patent US8703697B2, “Method for treating early severe diffuse acute respiratory distress syndrome” (priority 2011, dated 2014)

Legend:
severe diffuse ARDS = assay: Case observation: ARDS patient sedated with clonidine under spontaneous ventilation-pressure support and high PEEP; type: in vivo, human
sedation = details: continuous infusion for sedation; cited from earlier work

What does the source list for `Clc1cccc(Cl)c1N=C1NCCN1` [clonidine]?
P/F (PaO2/FiO2) (severe diffuse ARDS; human, in vivo): 262; Ramsay score (severe diffuse ARDS; under clonidine 1 μg·kg-1·h-1, progressively lowered from Ramsay 5-6, patient communicated with family on D5): 2-3

Which “dosage at which ceiling effect is observed” value (sedation) does the source give for `Cc1cccc([C@H](C)c2cnc[nH]2)c1C` [dexmedetomidine] here?
Its value is 1.5 µg/kg/h.

With `CC(CCc1ccc(O)cc1)NCCc1ccc(O)c(O)c1` (centres unmarked) [dobutamine] as the molecule, how does the “Superior vena cava O2 saturation” value (severe diffuse ARDS; at all intervals, dobutamine D3 to D6, 2 then 1 μg·kg-1·min-1) read?
Its value is over 70%.

With `NC[C@H](O)c1ccc(O)c(O)c1` [noradrenaline] as the molecule, how does the mean arterial pressure (severe diffuse ARDS; noradrenaline 0.45 μg·kg-1·min-1 lowered to 0.01 μg·kg-1·min-1, forced diuresis) read?
The mean arterial pressure was over 100 mm Hg.
